Data on three compounds can be found in US4756710A, “pH-Mediated drug delivery system” (Merck & Co., Inc., priority 1986, dated 1988).

In brackets after ≈: the same amount, converted by molar mass. Structures can show the parent of a compound that is named as a salt. Where two headings read alike, the source gives them in different places.

For data set [1] the following is noted: from equation (1); 30 percent ethanol/water; polyurethane membrane 0.0038 cm.
For data set [2] the following is noted: in water at 25° C.; reported; cited from earlier work.
A short description of data set [3]: Solubility of timolol maleate in pH controlled glycol reservoir vehicles. The data set is classed as physicochemical.
The nature of data set [4]: Solubility in mineral oil. It counts as physicochemical.
The format of data set [5] is physicochemical. The following applies: not told. Here is the method: Several pH controlled reservoir systems were prepared in a similar manner employing non-aqueous or aqueous glycol vehicles and different buffering agents. For this example, sorbitol USP and 70 percent aqueous propylene glycol were employed. The pH was adjusted with either Na2 HPO4 or Na2 CO3. pH measurements were made on a pH meter with a standard glass electrode and the flux determined in a diffusion cell employing a mineral oil soaked Celgard membrane to separate the buffered reservoir from the receptor phase.

A short description of data set [6]: Concentration of timolol base in aqueous buffer solutions calculated with the Henderson-Hasselbalch equation. The data set is classed as physicochemical. The conditions noted are these: pH 9.0; 15 mg/ml timolol maleate in aqueous buffer. From the text: where T is the time lag. Thus, after determining T, D may be calculated. By experimentally determining flux, and substituting in equation (1), K may be obtained. Having thus determined K and D, the desired flux may be achieved by making appropriate modifications of the pH, thereby the concentration, and/or the thickness of the membrane. The appropriate modifications in pH may be arrived at by preparing a series of buffer solutions containing a known quantity of the salt form of drug at various pH values and substituting in the Henderson-Hasselbalch equation, [formula] C, the concentration of the unionized form, may be calculated.

The text on data set [7]: The following operation illustrates with timolol the relationship among pH, the concentration C, of the timolol base in solution in the reservoir, and the flux calculated from the data as well as the observed flux obtained by placing the compositions behind the selected membrane in a diffusion cell and measuring the rate of release into an isotonic phosphate buffer of pH 7.4.
As a first step in determining the relationship between pH, concentration of timolol, its pK and the pH of the reservoir, an aqueous solution of 7.0 mg/ml of timolol was placed in a diffusion measuring cell fitted with a 1.5 mil (0.0038 cm) thick silicone membrane and the transport of timolol from the reservoir of the test cell to an isotonic pH 7.4 receptor phase was measured over a period of about eight hours by sampling the solution in the receptor phase, assaying this solution for drug by direct ultraviolet assay method and calculating the drug concentration over time, thereafter plotting the drug diffused per square centimeter versus time and calculating the regression line.
From the calculated concentration of the timolol base, the previously determined values for D and K and the known thickness of the membrane, the steady state flux was calculated (equation (1)). Thereafter, the steady state flux was determined experimentally by measuring the transport of timolol at each pH from the buffer system into an isotonic receptor phase through the silicone membrane.

By pKa is commonly meant the pH at which an ionisable group is half protonated. Consider `CC1=C(CC(=O)O)c2cc(F)ccc2/C1=C\c1ccc([S+](C)[O-])cc1` (centres unmarked) [sulindac], for which the “product KD” value in data set [1] is on record as 9.38×10^-4 cm^2 /hr. The pKa in data set [2] is 4.7.

A word on the solubility: it is how much of the substance goes into solution per volume. Take `CC(C)(C)NC[C@H](O)COc1nsnc1N1CCOCC1` [timolol maleate]: the solubility in data set [3] (70% propylene glycol + na2co3, organic solvent or mixture, 70% Propylene glycol +Na2 CO3, apparent pH 7.6) was found to be 124 mg/mL; in data set [3] (sorbitol usp + na2co3, Sorbitol USP +Na2 CO3, apparent pH 9.6), 0.7 mg/mL; in data set [3] (sorbitol usp + na2hpo4, Sorbitol USP +Na2 HPO4, apparent pH 6.9) it was 17.2 mg/mL. In addition, the “solubility in mineral oil” value in data set [4] was “substantially insoluble”. The “Jobs (flux)” value in data set [5] (pH 6.9) is recorded as 6.7 mcg/cm^2 /hr; in data set [5] (pH 7.6) it was 7.4 mcg/cm^2 /hr; in data set [5] (pH 9.6) it was 2.8 mcg/cm^2 /hr.

With `CC(C)(C)NC[C@H](O)COc1nsnc1N1CCOCC1` [timolol], the Cs Timolol Base in data set [6] was 4210 µg/mL. In addition, the solubility in data set [4] (organic solvent or mixture, 32° C.) was roughly 7000 µg/mL (≈ 22.1 mM). Moreover, the “partition coefficient between drug reservoir and membrane, K” value in data set [7] amounted to 2.05. Also, in data set [7] (aqueous solution of 7.0 mg/ml timolol, 1.5 mil silicone membrane, plot extrapolated to time axis), the “time lag, T” value was 0.0096 h. In data set [7] (silicone membrane, from equations (1) and (2)), the “drug diffusion coefficient in the membrane, D” value is recorded as 2.5×10^-4 cm^2 /hr.
